Results published in patent publication US10597388B2, “Pyridazinone herbicides” (FMC CORPORATION, priority 2014, dated 2020).

Tests used:
Assay in all cases: Test D controlled growth environment herbicide test, pre- and postemergence
Assay type in all cases: in vivo
[1] = system: Russian thistle (Salsola kali)
Method in brief: (§1)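 Species sown in silt loam and sprayed preemergence, or grown in peat-based medium to 2–18 cm (1- to 4-leaf stage) and sprayed postemergence, with compounds in non-phytotoxic solvent plus surfactant. Visual injury scored versus controls after 14–21 d in a controlled environment, 0 (no effect) to 100 (complete control).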

[2] = system: wheat, spring (spring wheat, Triticum aestivum)
Method in brief: as §1

[3] = system: pigweed (Amaranthus retroflexus)
Method in brief: as §1

[4] = system: wheat, winter (winter wheat, Triticum aestivum)
Method in brief: as §1

[5] = system: foxtail, green (green foxtail, Setaria viridis)
Method in brief: as §1

[6] = system: oat, wild (wild oat, Avena fatua)
Method in brief: as §1

[7] = system: field violet (Viola arvensis)
Method in brief: as §1

[8] = system: mustard, wild (wild mustard, Sinapis arvensis)
Method in brief: as §1

kochia (Kochia scoparia) = system: kochia (Kochia scoparia)
Method in brief: as §1

[9] = system: deadnettle (henbit deadnettle, Lamium amplexicaule)
Method in brief: as §1

[10] = system: barley, spring (spring barley, Hordeum vulgare)
Method in brief: as §1

[11] = system: windgrass (Apera spica-venti)
Method in brief: as §1

[12] = system: bluegrass (annual bluegrass, Poa annua)
Method in brief: as §1

[13] = Postemergence, 31 g ai/ha, scale 0 to 100 (0 no effect, 100 complete control)
[14] = Postemergence, 125 g ai/ha, visual rating on scale 0 (no effect) to 100 (complete control), 14 to 21 d
[15] = Postemergence, 250 g ai/ha, scale 0 to 100 (0 no effect, 100 complete control)
[16] = Preemergence, 125 g ai/ha, scale 0 to 100 (0 no effect, 100 complete control)
[17] = Preemergence, 250 g ai/ha, scale 0 to 100 (0 no effect, 100 complete control)
[18] = postemergence, 62 g ai/ha, scale 0 to 100, 0 no effect, 100 complete control
[19] = Preemergence, 62 g ai/ha, scale 0 to 100 (0 no effect, 100 complete control)

CCC(=O)Oc1c(C)nn(C)c(=O)c1-c1c(C)sc2ccc(Cl)cc12 [Compound 109]
25: Plant response rating, Wheat, Spring [2, 14] | Plant response rating, Wheat, Winter [4, 14] | Plant response rating, Barley, Spring [10, 15] | Plant response rating, Bluegrass [12, 14]
50: Plant response rating, Russian Thistle [1, 17] | Plant response rating, Deadnettle [9, 18]
95: Plant response rating, Foxtail, Green [5, 17] | Oat, Wild plant response rating [6, 13] | Plant response rating, Oat, Wild [6, 14] | Plant response rating, Oat, Wild [6, 18] | Plant response rating, Field Violet [7, 18] | Kochia plant response rating (kochia (Kochia scoparia); [13]) | Plant response rating, Deadnettle [9, 15] | Plant response rating, Deadnettle [9, 17]
70: Plant response rating (scale of 0 to 100), Kochia (kochia (Kochia scoparia); Preemergence, 62 g ai/ha) | Plant response rating, Deadnettle [9, 14]
55: Foxtail, Green plant response rating [5, 13] | Plant response rating (scale of 0 to 100), Windgrass ([11]; Preemergence, 31 g ai/ha)
0: Plant response rating (scale of 0 to 100), Russian Thistle ([1]; Preemergence, 31 g ai/ha) | Plant response rating (scale of 0 to 100), Wheat, Spring ([2]; Preemergence, 31 g ai/ha) | Plant response rating (scale of 0 to 100), Wheat, Winter ([4]; Preemergence, 31 g ai/ha) | Plant response rating (scale of 0 to 100), Wheat, Winter ([4]; Preemergence, 62 g ai/ha) | Plant response rating (scale of 0 to 100), Foxtail, Green ([5]; Preemergence, 31 g ai/ha) | Plant response rating (scale of 0 to 100), Deadnettle ([9]; Preemergence, 31 g ai/ha) | Barley, Spring plant response rating [10, 13] | Plant response rating (scale of 0 to 100), Barley, Spring ([10]; Preemergence, 31 g ai/ha) | Plant response rating, Barley, Spring [10, 19]
10: Wheat, Winter plant response rating [4, 13] | Plant response rating, Barley, Spring [10, 14] | Plant response rating (scale of 0 to 100), Bluegrass ([12]; Preemergence, 31 g ai/ha)
65: Plant response rating (scale of 0 to 100), Foxtail, Green ([5]; Preemergence, 62 g ai/ha) | Plant response rating, Foxtail, Green [5, 18] | Plant response rating, Windgrass [11, 18]
100: Plant response rating, Pigweed [3, 14] | Plant response rating, Pigweed [3, 15] | Plant response rating (scale of 0 to 100), Pigweed ([3]; Preemergence, 31 g ai/ha) | Plant response rating (scale of 0 to 100), Pigweed ([3]; Preemergence, 62 g ai/ha) | Plant response rating, Pigweed [3, 16] | Plant response rating, Pigweed [3, 17] | Plant response rating, Oat, Wild [6, 15] | Plant response rating, Field Violet [7, 14] | Plant response rating, Field Violet [7, 15] | Plant response rating (scale of 0 to 100), Field Violet ([7]; Preemergence, 62 g ai/ha) | Plant response rating, Field Violet [7, 16] | Plant response rating, Field Violet [7, 17] | Plant response rating, Mustard, Wild [8, 15] | Plant response rating, Mustard, Wild [8, 16] | Plant response rating, Mustard, Wild [8, 17] | Plant response rating, Kochia (kochia (Kochia scoparia); [14]) | Plant response rating, Kochia (kochia (Kochia scoparia); [15]) | Plant response rating, Kochia (kochia (Kochia scoparia); [17]) | Plant response rating, Kochia (kochia (Kochia scoparia); [18]) | Plant response rating, Windgrass [11, 17]
75: Plant response rating, Russian Thistle [1, 14] | Plant response rating, Russian Thistle [1, 18] | Plant response rating, Foxtail, Green [5, 14] | Plant response rating, Foxtail, Green [5, 16] | Plant response rating (scale of 0 to 100), Oat, Wild ([6]; Preemergence, 31 g ai/ha) | Plant response rating (scale of 0 to 100), Mustard, Wild ([8]; Preemergence, 62 g ai/ha)
35: Plant response rating, Russian Thistle [1, 16] | Plant response rating, Wheat, Winter [4, 15]
5: Wheat, Spring plant response rating [2, 13] | Plant response rating (scale of 0 to 100), Wheat, Spring ([2]; Preemergence, 62 g ai/ha) | Plant response rating, Wheat, Winter [4, 16] | Plant response rating (scale of 0 to 100), Mustard, Wild ([8]; Preemergence, 31 g ai/ha) | Plant response rating, Barley, Spring [10, 16] | Plant response rating, Barley, Spring [10, 17] | Plant response rating, Barley, Spring [10, 18] | Bluegrass plant response rating [12, 13]
85: Pigweed plant response rating [3, 13] | Plant response rating, Pigweed [3, 18] | Plant response rating, Foxtail, Green [5, 15] | Plant response rating (scale of 0 to 100), Field Violet ([7]; Preemergence, 31 g ai/ha) | Plant response rating, Mustard, Wild [8, 18]
30: Plant response rating, Wheat, Spring [2, 15] | Plant response rating, Bluegrass [12, 16]
45: Plant response rating, Bluegrass [12, 15]
80: Plant response rating (scale of 0 to 100), Oat, Wild ([6]; Preemergence, 62 g ai/ha) | Plant response rating, Kochia (kochia (Kochia scoparia); [16]) | Plant response rating, Deadnettle [9, 16] | Plant response rating, Windgrass [11, 14] | Plant response rating, Windgrass [11, 16]
60: Russian Thistle plant response rating [1, 13] | Mustard, Wild plant response rating [8, 13] | Plant response rating (scale of 0 to 100), Deadnettle ([9]; Preemergence, 62 g ai/ha) | Windgrass plant response rating [11, 13] | Plant response rating (scale of 0 to 100), Windgrass ([11]; Preemergence, 62 g ai/ha) | Plant response rating, Bluegrass [12, 17]
20: Plant response rating (scale of 0 to 100), Russian Thistle ([1]; Preemergence, 62 g ai/ha) | Plant response rating, Wheat, Spring [2, 16] | Plant response rating, Wheat, Winter [4, 17] | Plant response rating (scale of 0 to 100), Kochia (kochia (Kochia scoparia); Preemergence, 31 g ai/ha) | Deadnettle plant response rating [9, 13] | Plant response rating, Bluegrass [12, 19]
40: Plant response rating, Wheat, Spring [2, 17]
90: Plant response rating, Russian Thistle [1, 15] | Plant response rating, Oat, Wild [6, 16] | Plant response rating, Oat, Wild [6, 17] | Field Violet plant response rating [7, 13] | Plant response rating, Mustard, Wild [8, 14] | Plant response rating, Windgrass [11, 15]
15: Plant response rating, Wheat, Spring [2, 18] | Plant response rating, Wheat, Winter [4, 18] | Plant response rating, Bluegrass [12, 18]
